Measurements reported in US9017938B2, “Use of microrna-199b-5p in medical and diagnostic field” (Advanced Accelerator Applications, priority 2009, dated 2015).

Key:
HES1 = experiment: Western blotting of HES1 protein; type: cell-based, human
Experimental: (§1) Thirty μg cytosolic or nuclear lysates were loaded onto 12% polyacrilamide gels, and blotted onto polyvinylidene difluoride membranes (PVDF; BioRad, Milan, Italy). The membranes were then incubated with anti-HES1 (kind gift of Dr. Tetsuo Sudo TORAY Industries, Tebiro Kamakura, Japan), a polyclonal rabbit antibody (1:500), an anti-GSK3-β (B&D Bioscience) monoclonal antibody (1:2500), an anti-c-Myc polyclonal rabbit antibody (1:200) (Santa Cruz Biotechnology, Santa Cruz, Calif., USA), an anti-GABRA6 antibody (Santa Cruz Biotechnology, Santa Cruz, USA) (1:200), an anti-MATH3 antibody (Santa Cruz Biotechnology, Santa Cruz, USA) (1:200) and an anti-cyclin D1 (1:200) polyclonal rabbit antibody (Cell Signaling). An anti-β-actin antibody (1:1.000) (Sigma) was used as the control for equal loading of cytosolic lysates and a polyclonal anti-β-laminin antibody (1:50) (Santa Cruz Biotechnology, Santa Cruz, Calif., USA) for equal loading of nuclear lysates.

ONS76 cells = experiment: Proliferation assay MTS, ONS76; type: cell-based; details: transient transfection vs mock-transfected cells
Experimental: Cell proliferation was determined using the CellTiter96 AQueous Non-Radioactive Cell Proliferation Assay Kit (Promega Madison, Wis.). The cells were seeded into 96-well plates at a density of 1×10^3 cells/well in EMEM without or with FBS. After 0, 24, 48 and 72 h, MTS ([3-(4,5-dimethylthiazol-2-yl)-5-(3-carboxymethoxyphenyl)-2-(4-sulfophenyl)-2H-tetrazolium]) and PMS (phenazine methosulfate) were added to each well and after 4 h the absorbance of each well was measured at 490 nm (OD490) using Multilabel counter Victor^3 (Perkin Elmer). Each condition was performed with five wells and each experiment was repeated twice.

CD133+ Daoy cells = experiment: CD133 FACS analysis; type: cell-based, human
Experimental: The flow cytometry analysis of S-phase fractions and cell-cycle kinetics were carried out using a FACSCalibur (Becton Dickinson, San Jose, Calif.) using CELL Quest version 3.3 software. The CD133 studies were carried out using the same instrument, with antibodies from Miltenyi Biotec (Auburn, Calif.), according to the manufacturer instructions. In brief, the cells were blocked in Fc receptor blocking reagent and incubated with an anti-CD133/1 (AC133)-phycoerythrin antibody (Miltenyi Biotec), for 10 min in the dark at 4° C. The cells were then washed and resuspended in PBS. Cells expressing higher levels of CD133 than the immunoglobulin G (IgG) controls were considered positive. For analyses of the side populations, cells […] were incubated with Hoechst 33342 (5 μmol/L; Sigma) for 90 min at 37° C. in EMEM containing 2% FBS. To ensure the correct identification of the side population cells, the cells were incubated as above with the addition of 50 μM verapamil (Sigma).

GSK3-β = experiment: Western blotting of GSK3-β; type: cell-based, human; details: stable 199bSC1 clone
Experimental: as §1

Daoy cells = experiment: Orthotopic cerebellar xenograft (BLI, PET-CT, immunohistochemistry); type: in vivo, nude mice; details: 199bSC1 clone injected into fourth ventricle, four weeks, vs control cells
Experimental: The mice were kept in a ventilated cage (26° C.) for 1 h prior to imaging studies. Anesthesia was performed with intraperitoneal administration of a mixture of ketamine (100 mg/kg) and xylazine (10 mg/kg) (injection volume, 100 μl/10 g). PET was performed 1 h after administration of 3′-deoxy-3′-[18F]fluorothymidine ([18F]FLT), a marker of tumor proliferation (50 μL; 7.4 MBq; scan time, 18 min), in a lateral caudal vein, using an animal PET scanner (GE Healthcare eXplore Vista, FWHM 1.6 mm). High resolution CT studies (GE Healtcare eXplore Locus; spatial resolution, 45 μm) were performed within 24 h from the PET.
Lesion volumes were calculated from PET data using in-house-developed software (based on IDL, ITT Vis Inc), by summarizing all spatially connected voxels with SUV>50% SUVmax. Lesion profiles defined with these procedures were used for ROI-based comparison between AdV5-Mock and AdV5-199b.
Unmasking was performed in 10 mM citrate buffer, pH 6, at 97° C. for 45 min. […]
To establish intracerebellar xenograft models, 6-to-8-week-old SCID mice were anesthetized with Tribromoethanol (Avertin®) (50 mg/kg); after this, a small skin incision (1 mm) was made and a burr hole (0.7 mm in diameter) created with a microsurgical drill (Fine Science Tools, Foster City, Calif.). […] The animals were monitored weekly by bioluminescence to evaluate tumor growth for 8 weeks.

For “miR-199b-5p: mature microRNA CCCAGUGUUUAGACUAUCUGUUC (SEQ ID NO:11); over-expressed from pre-miR-199b construct, e.g. stable Daoy clones 199bSC1, 199bMC1 (listed as RNA, chemistry not fully specified)”, the “endogenous HES1 protein level” value (HES1; D283 cells, transient transfection vs empty vector) was “lowered the levels of the endogenous HES1 protein”, the “endogenous HES1 protein level” value (HES1; HEK293 cells, transient transfection, 48 h) was “lowered the levels of the endogenous HES1 protein” and the HES1 protein level (HES1; stable Daoy clone 199bSC1) was “no detectable HES1”. The HES1 protein level (HES1; three stable Daoy clones over-expressing miR-199b-5p) was “reduced HES1 protein levels”, the proliferation (ONS76 cells) was “decreased proliferation” and the “CD133+ cells” value (CD133+ Daoy cells; stable 199bMC1 clone (wild-type cells 14.8%)) was 6.5%. For the same substance, the “CD133+ cells” value (CD133+ Daoy cells; stable 199bSC1 clone (wild-type cells 14.8%)) was 2.4%, the GSK3-β protein levels (GSK3-β) was “did not show any significant reductions” and the “tumor growth by BLI” value (Daoy cells) was “considerably lower”.
